From US12280121B2, “Immunoconjugates and methods” (Immunome, Inc., priority 2021, dated 2025)
Where a name gives a salt, the structure may show the parent alone. Read-outs that look alike come from different tables or passages of the source. Non-standard residues stand in square brackets, D forms with d. Residues, ends and D or L forms follow the SMILES beside them. *: point of attachment. Dolaproine = CO[C@@H]([C@@H]1CCCN1)[C@@H](C)C(=O)O; Dil = CC[C@H](C)[C@H](NC)[C@@H](CC(=O)O)OC; X1 = C[C@@H](N*)[C@@H](O)c1ccccc1; NMeV = CN[C@H](C(=O)O)C(C)C

Columns and labels:
Jeko-1 [1] = experiment: CTG assay of ROR-1 ADCs and toxins, JeKo-1; assay type: cell-based
Description: FIG. 33 illustrates a CTG assay wherein ROR+ (JeKo-1) cells were incubated with the ADCs generated as described in FIG. 32 in serial three-fold dilutions and cell viability was assessed after 72 hours.
(§1) The CTG assay is a method of determining the number of viable cells in culture based on quantitation of the ATP present, an indicator of metabolically active cells. The cell assay requires the addition of a single reagent, Cell Titer Glo, in which cells are lysed and generation of a luminescent signal is produced. The luminescent signal is proportional to the amount of ATP present. The amount of ATP is directly proportional to the number of cells present in culture. For our assay, cells were ensured to be in log-phase for either Jeko-1 or MDA-MB-468. Cells were transferred to 96 wells and treated with compounds in three-fold serial dilution starting from 1 μM to 0.0000508 μM (10 points dilution), for 72 h. Cell viability was analyzed with CellTiter-Glo® Luminescent Cell Viability Assay (Promega) following manufactures' instruction. Percentage of viable cells in each compound concentration was determined by normalizing with the luminescence of vehicle control and plotted into percentage of viability versus dose response curve by nonlinear fit in GraphPad Prism software.
Novel ROR-1 antibody-drug conjugates (ADCs) were evaluated by CTG Assay in a similar manner as was described in Example 24 for screening of payloads. […] Briefly ROR+(JeKo-1/MDA-MB-468) or ROR− (Ramos) cells were transferred to 96 wells and treated with the ADCs in three-fold serial dilution starting from […] (10 points dilution), for 72 h. Cell viability was analyzed with CellTiter-Glo® Luminescent Cell Viability Assay (Promega) following the manufactures' instructions (FIG. 33). The percentage of viable cells at each ADC concentration was determined by normalizing with the luminescence of vehicle control and plotted into percentage of viability versus dose response curve by nonlinear fit in GraphPad Prism software.

Jeko-1 [2] = experiment: CTG assay (CellTiter-Glo cell viability), Jeko-1, payload compounds; assay type: cell-based; details: 72 h, CellTiter-Glo, read-out: JeKo-1 IC50
From the text: as §1

MDA-MB-468 = experiment: CTG assay (CellTiter-Glo cell viability), MDA-MB-468, payload compounds; assay type: cell-based; details: 72 h, CellTiter-Glo, read-out: MDA-MB-468 IC50
From the text: as §1

[3] = Human hepatocyte clearance (HHEP CL); assay type: in vitro ADME; set-up: CLint scaled / half-life: dose or concentration left out as unconfirmed; details: both sexes
Description: (§2) Suspensions of human hepatocytes (from 10 mixed gender human donors, final concentration 0.5×10^6 cell/mL) in Williams' E medium were incubated for 90 min with a test compound (0.90% acetonitrile and 0.10% DMSO, final concentration […]) and positive controls (7-Ethoxycoumarin, 7-Hydroxycoumarin, 0.90% acetonitrile and 0.10% DMSO, final concentration […]), with constant shaking at about 600 rpm at 37° C. in an incubator at 5% CO2 and 95% humidity. The total volume of incubation was 200 μl. A sample ([…]) was taken out at TO, 15, 30, 60 and 90 min, which was added intermediately to the ice-cold stop solution (acetonitrile with 200 ng/mL of tobutamide and labetalol as internal standard) (125 μl), and vortexed at 500 rpm for 10 min, centrifuged at 3220×g for 20 min at 4° C. Analytical plates are sealed and stored at 4° C. until LCMS analysis. Viability of hepatocytes at pre-incubation was determined to be 84.5%.
(§3) Human liver microsome clearance assay assess metabolism by the cytochrome P450 system (phase I enzymes). These enzymes oxidize substrates by incorporating oxygen atoms into hydrocarbons, thus causing the introduction of hydroxyl groups, or N- O- and S-dealkylation of substrates and forming more polar products easier to be cleared. Human hepatocyte clearance assay measures more broadly the overall cellular metabolism of the test compound (phase I and phase II enzyme pathways). Phase II enzymes catalyze the conjugation reaction of xenobiotic metabolites and charged species, such as glutathione, sulfate, glycine, or glucuronic acid to form even more polar compounds for easier clearance.

[4] = Human liver microsome clearance (HLM CL); assay type: in vitro ADME
Description: (§4) Working solution was prepared by adding 5 μL of compound and control stock solution (10 mM in dimethyl sulfoxide, DMSO) to 495 μL of acetonitrile (ACN) (intermediate solution concentration: 100 μM, 99% CAN and 1% DMSO. The appropriate concentrations of microsome working solutions were prepared in 100 mM potassium phosphate buffer. After reaction plates containing mixtures of compound and microsomes were pre-incubated at 37° C. for 10 min, […] of 2 mM of NADPH and 2 mM of MgCl2 solution was added to start the reaction. The final concentrations of incubation medium were as follows: microsome—0.5 mg protein/mL, test compound/control […], NADPH—1 mM, MgCl2 —1 mM, acetonitrile 0.99%, DMSO 0.01%. Incubations were performed at 37° C. for 60 min. Samples were taken out at TO, T5, T15, T30, T45 and T60, which was added intermediately to the ice-cold stop solution (acetonitrile with 200 ng/mL of tobutamide and labetalol as internal standard) (125 μl), shaken for 10 min, centrifuged at 4000 rpm for 20 min at 4° C. Analytical plates were analyzed by LCMS.
as §3

[5] = PAMPA (Parallel Artificial Membrane Permeability Assay); assay type: physicochemical
From the text: PAMPA is a method which determines the permeability of substances from a donor compartment, through a lipid-infused artificial membrane into an acceptor compartment. See Ottaviani, G.; Martel, S.; Carrupt, P-A. “Parallel Artificial Membrane Permeability Assay: A New Membrane for the Fast Prediction of Passive Human Skin Permeability”, Journal of Medicinal Chemistry, 2006, 49 (13), 3948-3954). A multi-well microtitre plate is used for the donor and a membrane/acceptor compartment is placed on top; the whole assembly is commonly referred to as a “sandwich”. At the beginning of the test, the drug is added to the donor compartment, and the acceptor compartment is drug-free. After an incubation period which may include stirring, the sandwich is separated, and the amount of drug is measured in each compartment. Mass balance allows calculation of drug that remains in the membrane.
The PAMPA was performed by Pion Inc using the GIT-0 lipid and 5 μM donor solution in pH 5.0 and pH 7.4 PRISMA buffer (containing 0.05% DMSO). The higher PAMPA data has been associated with better bystander killing. (Ogitani Y.; Hagihara K.; Oitate, M.; Naito, H.; Agatsuma T. “Bystander killing effect of DS-8201a, a novel anti-human epidermal growth factor receptor 2 antibody-drug conjugate, in tumors with human epidermal growth factor receptor 2 heterogeneity” Cancer Science, 2016, 107 (7), 1039-1046).

[6] = AC-SINS self-interaction assay; assay type: physicochemical; details: FIG. 30
Description: Antibody developability was assessed by performing an AC-SINS assay and evaluating the potential for self-interaction.
An initial assessment of antibody developability was performed by AC-SINS to evaluate the potential for self-interaction (FIG. 30).

human hepatocytes = experiment: Human hepatocyte clearance (HHEP CL); assay type: in vitro ADME; set-up: CLint scaled / half-life: dose or concentration left out as unconfirmed; details: human hepatocytes, 90 min incubation
Description: as §2, §3

human liver microsome = experiment: Human liver microsome clearance (HLM CL); assay type: in vitro ADME; details: human liver microsomes 0.5 mg protein/mL, NADPH, 60 min
Description: as §4, §3

[7] = Jeko-1, average of run 1 and run 2, read-out: Avg. IC50
[8] = Jeko-1 P3, run 1, 72 h, read-out: Jeko-1 P3 (RUN1) IC50
[9] = Homo sapiens, Jeko-1, average of run 1 and run 2, read-out: Avg. IC50
[10] = Homo sapiens, Jeko-1 P3, run 1, 72 h, read-out: Jeko-1 P3 (RUN1) IC50
[11] = Homo sapiens, Jeko-1 P4, run 2, 72 h, read-out: Jeko-1 P4 (RUN2) IC50

Molecule | IC50 (Jeko-1 [2]; Homo sapiens, JeKo-1) [nM] | IC50 (MDA-MB-468; Homo sapiens, MDA-MB-468) [nM] | CLint scaled ([3]; human, hepatocytes) [mL/min/kg] | half-life ([3]; human, hepatocytes) [min] | CLint scaled ([4]; human, microsomes) [mL/min/kg] | half-life ([4]; human, microsomes) [min] | Papp at 5 μM ([5]; pH 5) [×10⁻⁶ cm/s] | Papp at 5 μM ([5]; pH 7.4) [×10⁻⁶ cm/s] | other results
CC[C@H](C)[C@@H]([C@@H](CC(=O)N1CCC[C@H]1[C@H](OC)[C@@H](C)C(=O)N[C@H](C)[C@@H](O)c1ccccc1)OC)N(C)C(=O)[C@@H](NC(=O)[C@@H](NC)C(C)C)C(C)C [MMAE, reference compound] (H-[NMeV]V[Dil][Dolaproine]-X1) | – | – | – | – | – | – | – | – | IC50 (Jeko-1 [1]; [7]): 0.2 nM; IC50 (Jeko-1 [1]; [8]): 0.2 nM; IC50 (Jeko-1 [1]; Jeko-1 P4, run 2, 72 h, read-out: Jeko-1 P4 (RUN2) IC50): 0.2 nM
CC[C@@]1(O)C(=O)OCc2c1cc1n(c2=O)Cc2c-1nc1cc(F)c(C)c3c1c2[C@@H](OCCO)CC3 (single isomer, unassigned) [Compound 5-48] | 0.68 | 8.3 | 75.5 | 51.1 | 17.4 | 71.7 | 69 | 9 | IC50 (Jeko-1 [1]; [9]): 0.5 nM; IC50 (Jeko-1 [1]; [10]): 0.5 nM; IC50 (Jeko-1 [1]; [11]): 0.5 nM
Adalimumab | – | – | – | – | – | – | – | – | AC-SINS shift (self-interaction) [6]: low shift
CC[C@@]1(O)C(=O)OCc2c1cc1n(c2=O)Cc2c-1nc1cc(F)c(C)c3c1c2[C@@](C)(NC(=O)CO)CC3 [Compound 9-74, N-((1S,9S)-9-ethyl-5-fluoro-9-hydroxy-1,4-dimethyl-10,13-dioxo-1,2,3,9,10,12,13,15-octahydrobenzo[de]pyrano[3′,4′:6,7]indolizino[1,2-b]quinolin-1-yl)-2-hydroxyacetamide] | 4.1 | 57.7 | 57.5 | 67 | 22.7 | 54.9 | 36.1 | 4.4 | IC50 (Jeko-1 [1]; [9]): 3.1 nM; IC50 (Jeko-1 [1]; [10]): 2.4 nM; IC50 (Jeko-1 [1]; [11]): 3.7 nM
CC[C@@]1(O)C(=O)OCc2c1cc1n(c2=O)Cc2c-1nc1cc(F)c(C)c3c1c2[C@](C)(NCCO)CC3.Cl [Compound 17-96, (1R,9S)-9-ethyl-5-fluoro-9-hydroxy-1-((2-hydroxyethyl)amino)-1,4-dimethyl-2,3,12,15-tetrahydrobenzo[de]pyrano[3′,4′:6,7]indolizino [1,2-b]quinoline-10,13(1H,9H)-dione hydrochloride] | 2.1 | 22 | – | – | – | – | – | – | half-life ([3]; human hepatocytes, 90 min incubation, read-out: HHEP (T1/2)): 82 min; CLint scaled ([3]; human hepatocytes, 90 min incubation, read-out: HHEP Cl (human hepatocytes intrinsic clearance)): 47.1 mL/min/kg; half-life ([4]; human liver microsomes 0.5 mg protein/mL, NADPH, 60 min, read-out: HLM (T1/2)): 17.5 min; CLint scaled ([4]; human liver microsomes 0.5 mg protein/mL, NADPH, 60 min, read-out: HLM Cl (human liver microsome clearance)): 71.3 mL/min/kg; Papp at 5 μM ([5]; pH 5.0 PRISMA buffer, GIT-0 lipid, 5 μM donor solution, read-out: PAMPA Pe pH 5.0): 62.6 ×10⁻⁶ cm/s; Papp at 5 μM ([5]; pH 7.4 PRISMA buffer, GIT-0 lipid, 5 μM donor solution, read-out: PAMPA Pe pH 7.4): 4.3 ×10⁻⁶ cm/s
CC[C@@]1(O)C(=O)OCc2c1cc1n(c2=O)Cc2c-1nc1cc(F)c(C)c3c1c2[C@@H](NC(=O)CO)CC3 [Dxd, reference compound] | – | – | – | – | – | – | – | – | IC50 (Jeko-1 [2]): 1.42 nM; IC50 (MDA-MB-468): 11.6 nM; HHEP (T1/2) (human hepatocytes): (79.0) min; HHEP Cl (human hepatocytes intrinsic clearance) (human hepatocytes): 48.7 mL/min/kg; HLM (T1/2) (human liver microsome): (>145); HLM Cl (human liver microsome clearance) (human liver microsome): 8.6 mL/min/kg; IC50 (Jeko-1 [1]; [7]): 0.9 nM; IC50 (Jeko-1 [1]; [8]): 0.9 nM
CC[C@@]1(O)C(=O)OCc2c1cc1n(c2=O)Cc2c-1nc1cc(F)c(C)c3c1c2[C@@](C)(N)CC3 (single isomer, unassigned) [Compound 8-71, hydrochloride] | 0.44 | 6.1 | 81.7 | 47 | 41.9 | 30 | 67.7 | 8.6 | –
